Reference: patent US9115133B2, “Substituted fused tricyclic compounds, compositions and medicinal applications thereof” (Advinus Therapeutics Limited, priority 2011, dated 2015)

Tests used:
Assay type in all cases: biochemical
Details in all cases: 200 μg/ml Poly Glu-Tyr (4:1), ATP 1 uM, 90 min room temperature, luminescence
[1] = target: T1, Recombinant JAK3 (Amino acids 781-1124) (Homo sapiens, UniProt P52333); assay: Kinase-Glo Luminescent Kinase Assay, recombinant JAK3
T1 construct: JAK3 (Amino acids 781-1124; NM_000215.3); made in house; host or cells: baculovirus expression system (Bac-to-Bac)
T1 sequence (P52333 781-1124): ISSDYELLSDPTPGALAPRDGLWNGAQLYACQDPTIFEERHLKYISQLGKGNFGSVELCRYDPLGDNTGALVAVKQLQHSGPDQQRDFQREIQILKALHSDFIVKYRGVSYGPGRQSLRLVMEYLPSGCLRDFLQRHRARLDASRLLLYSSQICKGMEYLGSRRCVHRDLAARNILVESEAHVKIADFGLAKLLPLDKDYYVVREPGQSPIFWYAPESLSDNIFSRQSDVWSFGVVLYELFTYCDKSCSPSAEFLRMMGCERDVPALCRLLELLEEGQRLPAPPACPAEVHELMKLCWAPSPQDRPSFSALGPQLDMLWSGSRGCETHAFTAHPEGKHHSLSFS
Description: (§1) Recombinant JAK1 (Amino acids 850-1154; NM_002227.2), JAK2 (Amino acids 808-1132; NM_004972.3) and JAK3 (Amino acids 781-1124; NM_000215.3) used in the studies were expressed using Invitrogen's Bac-to-Bac baculovirus expression system according to manufacturer's instructions. Adenosine 5′-triphosphate was obtained from Sigma Aldrich chemicals (Cat # A7699). Poly Glu-Tyr (4:1) sodium salt was obtained from Sigma Aldrich (Cat # P0275), Kinase Glo® Luminescent Kinase assay kit was obtained from Promega (Cat # V6713) Kinase activity was assessed by Promega Kinase-Glo® Luminescent Kinase Assay kit using 200 μg/ml Poly Glu-Tyr (4:1) as substrate and ATP at 1 uM concentration. The reactions were carried out in 384 well plates in total reaction volume of 20 uL. Reaction mixtures contained 50 mM HEPES pH 7.4, 5 mM MgCl2, 1 mM DTT, 0.01% BSA, 0.01% Tween 20. Kinase was pre-incubated with compounds or 1% DMSO for 5 min before addition of substrate and ATP to check for inhibition. Kinase reactions were carried out at room temperature for 90 min. The reactions were stopped by adding 5 μl of Kinase Glo® reagent & 10 μl of reaction mixture followed by measuring luminescence. The luminescent signal is correlated with the amount of ATP present at the end of kinase reaction and is inversely correlated with the amount of kinase activity. For each data point, % inhibition is calculated based on uninhibited reaction (without compound) which is considered as 100% activity over no enzyme or substrate controls. Dose response data is then fit using a four parameter logistic equation using Graph-pad Prism 5 software to determine inhibition constant 50 (IC50).

[2] = target: T2, Recombinant JAK2 (Amino acids 808-1132) (Homo sapiens, UniProt O60674); assay: Kinase-Glo Luminescent Kinase Assay, recombinant JAK2
T2 construct: JAK2 (Amino acids 808-1132; NM_004972.3); made in house; host or cells: baculovirus expression system (Bac-to-Bac)
T2 sequence (O60674 808-1132): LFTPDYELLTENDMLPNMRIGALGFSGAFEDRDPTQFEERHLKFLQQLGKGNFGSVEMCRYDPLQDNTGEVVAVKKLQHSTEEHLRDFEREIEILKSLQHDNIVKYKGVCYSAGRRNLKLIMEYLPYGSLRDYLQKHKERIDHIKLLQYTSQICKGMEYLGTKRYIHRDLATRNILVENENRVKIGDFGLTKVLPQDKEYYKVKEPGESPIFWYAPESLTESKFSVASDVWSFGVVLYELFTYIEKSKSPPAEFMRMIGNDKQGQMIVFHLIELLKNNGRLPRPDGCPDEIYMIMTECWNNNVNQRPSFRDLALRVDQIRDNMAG
Description: as §1

[3] = target: T3, Recombinant JAK1 (Amino acids 850-1154) (Homo sapiens, UniProt P23458); assay: Kinase-Glo Luminescent Kinase Assay, recombinant JAK1
T3 construct: Recombinant JAK1 (Amino acids 850-1154; NM_002227.2); made in house; host or cells: baculovirus expression system (Bac-to-Bac)
T3 sequence (P23458 850-1154): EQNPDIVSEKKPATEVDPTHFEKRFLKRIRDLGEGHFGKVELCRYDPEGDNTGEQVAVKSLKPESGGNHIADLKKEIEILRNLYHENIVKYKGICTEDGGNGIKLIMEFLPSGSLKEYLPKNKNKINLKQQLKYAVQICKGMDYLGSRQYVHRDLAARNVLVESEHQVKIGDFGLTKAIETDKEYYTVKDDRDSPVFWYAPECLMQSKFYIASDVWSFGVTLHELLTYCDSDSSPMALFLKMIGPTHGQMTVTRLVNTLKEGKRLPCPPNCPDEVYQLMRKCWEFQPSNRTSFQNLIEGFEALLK
Description: as §1

Structure (SMILES)	IC50 [1]	IC50 [2]	IC50 [3]
CS(=O)(=O)N1CCC[C@@H](c2ccnc3cnc4[nH]ccc4c23)C1 [Ex. 10B, (S)9-(1-methylsulfonyl-3-piperidyl)-3H-pyrrolo[3,2-f][1,7]naphthyridine]	1 to 20 nM	1 to 20 nM	1 to 20 nM
N#CCC(=O)N1CCCC(c2ncnc3cnc4[nH]ccc4c23)C1 (stereo not shown) [Ex. 23, 3-Oxo-3-[3-(3H-3,4,6,8-tetraazacyclopenta[a]naphthalen-9-yl)-piperidin-1-yl]-propionitrile]	1 to 20 nM	1 to 20 nM	1 to 20 nM
N#CCC(=O)N1CC[C@@H](c2ccnc3cnc4[nH]ccc4c23)C1 [Ex. 14B, (S)3-oxo-3-[3-(3H-pyrrolo[3,2-f][1,7]naphthyridin-9-yl)pyrrolidin-1-yl]propanenitrile]	> 20 nM	1 to 20 nM	1 to 20 nM
O=S(=O)(N1CCC(c2ccnc3cnc4[nH]ccc4c23)C1)C(F)(F)F (stereo not shown) [Ex. 17, 9-[1-(trifluoromethylsujlfonyl)pyrrolidin-3-yl]-3H-pyrrolo[3,2-f][1,7]naphthyridine]	> 20 nM	1 to 20 nM	> 20 nM
CC(C)NC(=O)N1CCCC(c2ncnc3cnc4[nH]ccc4c23)C1 (stereo not shown) [Ex. 32, 3-(3H-3,4,6,8-Tetraaza-cyclopenta[a]naphthalen-9-yl)-piperidine-1-carboxylic acid isopropylamide]	> 20 nM	> 20 nM	> 20 nM
O=C(C1CCOC1)N1CCCC(c2ncnc3cnc4[nH]ccc4c23)C1 (stereo not shown) [Ex. 26, [3-(3H-3,4,6,8-Tetraaza-cyclopenta[a]naphthalen-9-yl)-piperidin-1-yl]-(tetrahydro-furan-3-yl)-mathanone]	> 20 nM	> 20 nM	1 to 20 nM
N#C/N=C(\CC(F)(F)F)N1CCC(c2ccnc3cnc4[nH]ccc4c23)C1 (stereo not shown) [Ex. 45, (E)-[3,3,3-trifluoro-1-[3-(3H-pyrrolo[3,2-f][1,7]naphthyridin-9-yl)pyrrolidin-1-yl]propylidene]cyanamide]	> 20 nM	1 to 20 nM	1 to 20 nM
CCS(=O)(=O)N1CCC(c2ccnc3cnc4[nH]ccc4c23)C1 (stereo not shown) [Ex. 19, 9-(1-ethylsulfonylpyrrolidin-3-yl)-3H-pyrrolo[3,2-f][1,7]naphthyridine]	> 20 nM	1 to 20 nM	1 to 20 nM
CC(C)S(=O)(=O)N1CCCC(c2ccnc3cnc4[nH]ccc4c23)C1 (stereo not shown) [Ex. 11, 9-(1-isopropylsulfonyl-3-piperidyl)-3H-pyrrolo[3,2-][1,7]naphthyridine]	> 20 nM	> 20 nM	> 20 nM
O=C(CC(F)(F)F)N1CCC(c2ccnc3cnc4[nH]ccc4c23)C1 (stereo not shown) [Ex. 15, 3,3,3-trifluoro-1-[3-(3H-pyrrolo[3,2-f][1,7]naphthyridin-9-yl)pyrrolidin-1-yl]propan-1-one]	> 20 nM	1 to 20 nM	1 to 20 nM
O=C(CC(F)(F)F)N1CCC[C@@H](c2ncnc3cnc4[nH]ccc4c23)C1 [Ex. 24A, (R)3,3,3-Trifluoro-1-[3-(3H-3,4,6,8-tetraazacyclopenta[a]naphthalen-9-yl)-piperidin-1-yl]-propan-1-one]	> 20 nM	> 20 nM	> 20 nM
O=C(CC(F)(F)F)N1CC[C@H](c2ccnc3cnc4[nH]ccc4c23)C1 [Ex. 15A, (R)3,3,3-trifluoro-1-[3-(3H-pyrrolo[3,2-f][1,7]naphthyridin-9-yl)pyrrolidin-1-yl]propan-1-one]	> 20 nM	> 20 nM	> 20 nM
CN(CC1CC1)C1CCN(c2ccnc3cnc4[nH]ccc4c23)C1 (stereo not shown) [Ex. 62, N-(cyclopropylmethyl)-N-methyl-1-(3H-pyrrolo[3,2-f][1,7]naphthyridin-9-yl)pyrrolidin-3-amine]	> 20 nM	> 20 nM	
CC(C)CC(=O)N1CCCC(c2ncnc3cnc4[nH]ccc4c23)C1 (stereo not shown) [Ex. 21, 3-Methyl-1-[3-(3H-3,4,6,8-tetraazacyclopenta[a]naphthalen-9-yl)-piperidin-1-yl]-butan-1-one]	> 20 nM	> 20 nM	> 20 nM
N#CCC(=O)N1CC[C@H](c2ccnc3cnc4[nH]ccc4c23)C1 [Ex. 14A, (R)3-oxo-3-[3-(3H-pyrrolo[3,2-f][1,7]naphthyridin-9-yl)pyrrolidin-1-yl]propanenitrile]	> 20 nM	> 20 nM	> 20 nM
CNC(=O)C1CCCN(c2ccnc3cnc4[nH]ccc4c23)C1 (stereo not shown) [Ex. 71, N-methyl-1-(3H-pyrrolo[3,2-f][1,7]naphthyridin-9-yl)piperidine-3-carboxamide]	> 20 nM	> 20 nM	> 20 nM
N#CCC(=O)N1CCC(c2ccnc3cnc4[nH]ccc4c23)C1 (stereo not shown) [Ex. 14, 3-oxo-3-[3-(3H-pyrrolo[3,2-f][1,7]naphthyridin-9-yl)pyrrolidin-1-yl]propanenitrile]	> 20 nM	1 to 20 nM	1 to 20 nM
N#CCC(=O)N1CCC[C@@H](c2ccnc3cnc4[nH]ccc4c23)C1 [Ex. 1B, (S)3-oxo-3-[3-(3H-pyrrolo[3,2-f][1,7]naphthyridin-9-yl)-1-piperidyl]propanenitrile]	< 1 nM	1 to 20 nM	1 to 20 nM
O=C(CC(F)(F)F)N1CCCC(c2ncnc3cnc4[nH]ccc4c23)C1 (stereo not shown) [Ex. 24, 3,3,3-Trifluoro-1-[3-(3H-3,4,6,8-tetraazacyclopenta[a]naphthalen-9-yl)-piperidin-1-yl]-propan-1-one]	> 20 nM	1 to 20 nM	1 to 20 nM
CN(C)C(=O)N1CCCC(c2ccnc3cnc4[nH]ccc4c23)C1 (stereo not shown) [Ex. 47, N,N-dimethyl-3-(3H-pyrrolo[3,2-f][1,7]naphthyridin-9-yl)piperidine-1-carboxamide]	1 to 20 nM	1 to 20 nM	1 to 20 nM
CC(C)(C)OC(=O)NC1CCN(c2ccnc3cnc4[nH]ccc4c23)C1 (stereo not shown) [Comp. 124, tert-Butyl N-[1-(3H-pyrrolo[3,2-f][1,7]naphthyridin-9-yl)pyrrolidin-3-yl]carbamate]	> 20 nM	> 20 nM	
c1cc(N2CCC(OCC3CC3)C2)c2c(cnc3[nH]ccc32)n1 (stereo not shown) [Ex. 59, 9-[3-(cyclopropylmethoxy)pyrrolidin-1-yl]-3H-pyrrolo[3,2-f][1,7]naphthyridine]	1 to 20 nM	> 20 nM	
N#CCS(=O)(=O)N1CC[C@H](c2ccnc3cnc4[nH]ccc4c23)C1 [Ex. 16A, (R)2-[3-(3H-pyrrolo[3,2-f][1,7]naphthyridin-9-yl)pyrrolidin-1-yl]sulfonylacetonitrile]	> 20 nM	1 to 20 nM	
O=S(=O)(NC1CCN(c2ccnc3cnc4[nH]ccc4c23)C1)C1CC1 (stereo not shown) [Ex. 91, N-[1-(3H-pyrrolo[3,2-f][1,7]naphthyridin-9-yl)pyrrolidin-3-yl]cyclopropanesulfon-amide]	> 20 nM	1 to 20 nM	
O=C(NC1CC1)N1CCCC(c2ccnc3cnc4[nH]ccc4c23)C1 (stereo not shown) [Ex. 46, N-cyclopropyl-3-(3H-pyrrolo[3,2-f][1,7]naphthyridin-9-yl)piperidine-1-carboxamide]	> 20 nM	> 20 nM	
O=S(=O)(CC(F)(F)F)NC1CCN(c2ccnc3cnc4[nH]ccc4c23)C1 (stereo not shown) [Ex. 90, 2,2,2-trifluoro-N-[1-(3H-pyrrolo[3,2-f][1,7]naphthyridin-9-yl)pyrrolidin-3-yl] ethanesulfonamide]	1 to 20 nM	1 to 20 nM	
CS(=O)(=O)N1CCC[C@H](c2ccnc3cnc4[nH]ccc4c23)C1 [Ex. 10A, (R)9-(1-methylsulfonyl-3-piperidyl)-3H-pyrrolo[3,2-f][1,7]naphthyridine]	> 20 nM	> 20 nM	
O=S(=O)(CC(F)(F)F)NC1CCCN(c2ccnc3cnc4[nH]ccc4c23)C1 (stereo not shown) [Ex. 86, 2,2,2-trifluoro-N-[1-(3H-pyrrolo[3,2-f][1,7]naphthyridin-9-yl)-3-piperidyl] ethanesulfonamide]	1 to 20 nM	1 to 20 nM	
CC(C)S(=O)(=O)NC1CCN(c2ccnc3cnc4[nH]ccc4c23)C1 (stereo not shown) [Ex. 92, N-[1-(3H-pyrrolo[3,2-f][1,7]naphthyridin-9-yl)pyrrolidin-3-yl]propane-2-sulfonamide]	> 20 nM	1 to 20 nM	
O=C(NC1CC1)C1CCCN(c2ccnc3cnc4[nH]ccc4c23)C1 (stereo not shown) [Ex. 61, N-cyclopropyl-1-(3H-pyrrolo[3,2-f][1,7]naphthyridin-9-yl)piperidine-3-carboxamide]	> 20 nM	> 20 nM	
